Measurements reported in article PMC11618052, “Design, synthesis, and antiproliferative activity of new 1,2,3-triazole/quinazoline-4-one hybrids as dual EGFR/BRAF^V600E inhibitors” (RSC Advances, 2024).
“And” between values parts separate entries of the source, which are not always exact repeats. Identical values can stand only once.

Key:
Bax = Bax level assay in MCF-7; type: cell-based, human; conditions: for Bax Fold change: MCF-7, versus untreated control; for Bax Conc.: MCF-7 cancer cell line
Method: (§1) Compounds 8g and 8h were evaluated as caspase-3, 8 and Bax activators and as down-regulator of the anti-apoptotic protein Bcl2 against the MCF-7 breast cancer cell line.[40] Appendix A ^† contains more details. […]
Bring all reagents, except the human Bax-α Standard, to room temperature for at least 30 minutes prior to opening. The human Bax-α Standard solution should not be left at room temperature for more than 10 minutes. All standards, controls and samples should be run in duplicate. Refer to the Assay Layout Sheet to determine the number of wells to be used and put any remaining wells with the desiccant back into the pouch and seal the ziploc. Store unused wells at 4 °C. Pipet 100 μL of Assay Buffer into the S0 (0 pg/mL standard) wells. Pipet 100 μL of Standards #1 through #6 into the appropriate wells. Pipet 100 μL of the Samples into the appropriate wells. Tap the plate gently to mix the contents. Seal the plate and incubate at room temperature on a plate shaker for 1 hour at ~500 rpm. Empty the contents of the wells and wash by adding 400 μL of wash solution to every well. Repeat the wash 4 more times for a total of 5 washes. After the final wash, empty or aspirate the wells and firmly tap the plate on a lint free paper towel to remove any remaining wash buffer.
Pipet 100 μL of yellow Antibody into each well, except the Blank. Seal the plate and incubate at room temperature on a plate shaker for 1 hour at ~500 rpm. Empty the contents of the wells and wash by adding 400 μL of wash solution to every well. Repeat the wash 4 more times for a total of 5 washes. After the final wash, empty or aspirate the wells and firmly tap the plate on a lint free paper towel to remove any remaining wash buffer. Add 100 μL of blue Conjugate to each well, except the Blank. Seal the plate and incubate at room temperature on a plate shaker for 30 minutes […]
Pipet 100 μL of Substrate Solution into each well. Incubate for 30 minutes at room temperature on a plate shaker at ~500 rpm. Pipet 100 μL Stop Solution to each well. Blank the plate reader against the Blank wells, read the optical density at 450 nm. Calculate the average net Optical Density (OD) bound for each standard and sample by subtracting the average Blank OD from the average OD for each standard and sample. Using linear graph paper, plot the Average Net OD for each standard versus Bax concentration in each standard. Approximate a straight line through the points.
The concentration of Bax in the unknowns can be determined by interpolation. […]
Remove plate cover and empty the wells. […]
Incubate the microwell strips at room temperature (18° to 25°C) for about 15 minutes, if available on a rotator set at 100 rpm.

Bcl-2 = Bcl-2 level assay in MCF-7; type: cell-based, human; conditions: for Bcl-2 Fold reduction: MCF-7, versus untreated control; for Bcl-2 Conc.: MCF-7 cancer cell line
Method: as §1
4.2.1.8. Bcl-2inhibition assay
Mix all reagents thoroughly without foaming before use. Wash the microwells twice with approximately 300 μL Wash Buffer per well with thorough aspiration of microwell contents between washes. Take caution not to scratch the surface of the microwells. After the last wash, empty the wells and tap microwell strips on absorbent pad or paper towel to remove excess Wash Buffer. Use the microwell strips immediately after washing or place upside down on a wet absorbent paper for not longer than 15 minutes. […] Add 100 μL of Sample […]
Diluent in duplicate to all standard wells and to the blank wells. Prepare standard (1:2 dilution) in duplicate ranging from 32 ng/mL to 0.5 ng/mL. Add 100 μL of Sample Diluent, in duplicate, to the blank wells. Add 80 μL of Sample Diluent, in duplicate, to the sample wells. Add 20 μL of each Sample, in duplicate, to the designated wells. Add 50 μL of diluted biotin-conjugate to all wells, including the blank wells. Cover with a plate cover and incubate at room temperature, on a microplate shaker at 100 rpm if available, for 2 hours. Remove plate cover and empty the wells.
Wash microwell strips 3 times as described in step 2. Add 100 μL of diluted Streptavidin-HRP to all wells, including the blank wells. Cover with a plate cover and incubate at room temperature, on a microplate shaker at 100 rpm if available, for 1 hour. Remove plate cover and empty the wells.
Wash microwell strips 3 times as described in step 2. Proceed to the next step. Pipette 100 μl of mixed TMB Substrate Solution to all wells, including the blanks. Incubate the microwell strips at room temperature (18° to 25°C) for about 15 minutes, if available on a rotator set at 100 rpm.
Avoid direct exposure to intense light. The point, at which the substrate reaction is stopped, is often determined by the ELISA reader. Many ELISA readers record absorbance only up to 2.0
O.D. Therefore, the color development within individual microwells must be watched by the person running the assay and the substrate reaction stopped before positive wells are no longer properly detectable. Stop the enzyme reaction by quickly pipetting 100 μL of Stop Solution into each well, including the blank wells. It is important that the Stop Solution is spread quickly and uniformly throughout the microwells to completely inactivate the enzyme. Results must be read immediately after the Stop Solution is added or within one hour if the microwell strips are stored at 2 - 8°C in the dark. Read absorbance of each microwell on a spectrophotometer using 450 nm as the primary wavelength. […]
(FITC) and propidium iodide (PI) staining kit (BD Pharmingen, San Diego, USA). […]
μL of FITC and PI were added to Eppendorf tube, cells were vortexed, incubated for 15 min at room temperature in dark. Subsequently, cells were analyzed by flow cytometry (Becton Dickinson, Franklin Lakes, and USA).

Row | Compound | Bax Fold change (Bax) | Bax Conc. (Bax) | Bax Conc. (Bax; listed as staurosporine) | Bcl-2 Fold reduction (Bcl-2) | Bcl-2 Conc. (Bcl-2)
1 | CN[C@@H]1C[C@H]2O[C@@](C)([C@@H]1OC)n1c3ccccc3c3c4c(c5c6ccccc6n2c5c31)C(=O)NC4 [Staurosporine, reference compound] | 35 | 280 ± 7 pg/mL | 280 pg/mL | 5 | 1.10 ng/mL
2 | Cc1ccc(-n2cc(CSc3nc4ccccc4c(=O)n3-c3ccc(C)cc3)nn2)cc1 [Compound 8h, 2-(((1-(p-Tolyl)-1H-1,2,3-triazol-4-yl)methyl)thio)-3-(p-tolyl)quinazolin-4(3H)-one] | 37 | 295 pg/mL and 295 ± 9 pg/mL | – | 6 | 0.90 ng/mL
3 | COc1ccc(-n2cc(CSc3nc4ccccc4c(=O)n3-c3ccc(C)cc3)nn2)cc1 [Compound 8g, 2-(((1-(4-Methoxyphenyl)-1H-1,2,3-triazol-4-yl)methyl)thio)-3-(p-tolyl)quinazolin-4(3H)-one] | 39 | 315 pg/mL and 315 ± 9 pg/mL | – | 7 | 0.70 ng/mL
